Values quoted from earlier work as cited in US11331424B2, “Apparatus, systems and methods for delivery of medication to the brain to treat neurological conditions” (InCube Labs, LLC, priority 2009, dated 2022).
Like-named read-outs stand apart in the source and are kept apart here.

How the values were obtained:
[1] = test system: evoked and spontaneous epileptic neural activity; settings: epileptic animal models
[2] = many patients; significant = more than about 10% increase in urine production or more than about 5% decrease in plasma electrolyte
[3] = oral administration
[4] = test system: evoked and spontaneous epileptic neural activity; settings: human patients

NS(=O)(=O)c1cc(C(=O)O)c(NCc2ccco2)cc1Cl [Furosemide]
effect on evoked and spontaneous epileptic neural activity and subsequent cortical spreading depression [1]: block evoked and spontaneous epileptic neural activity and subsequent cortical spreading depression | threshold dosage which produces a significant increase in diuresis and/or significant decrease in the patient's electrolyte level(s) [2]: about 20 mg | time to get into the patient's blood stream [3]: ≥ 30 min | effect on evoked and spontaneous epileptic neural activity and subsequent cortical spreading depression [4]: block evoked and spontaneous epileptic neural activity and subsequent cortical spreading depression
